From US12486267B2, “Imidazo[1,2-A]pyridine and [1,2,4]triazolo[1,5-A]pyridine derivatives as TLR9 inhibitors for the treatment of fibrosis” (BRISTOL-MYERS SQUIBB COMPANY, priority 2020, dated 2025)

Columns and labels:
Type in all cases: cell-based
[1] = molecular target: T1, human TLR9 (Homo sapiens, UniProt Q9NR96); test: TLR9 inhibition reporter assay (HEK-Blue cells, SEAP reporter); details: HEK-Blue cells overexpressing human TLR9; stimulated with ODN2006 5 nM; 22 hour incubation; SEAP readout
T1 sequence (Q9NR96 26-1032): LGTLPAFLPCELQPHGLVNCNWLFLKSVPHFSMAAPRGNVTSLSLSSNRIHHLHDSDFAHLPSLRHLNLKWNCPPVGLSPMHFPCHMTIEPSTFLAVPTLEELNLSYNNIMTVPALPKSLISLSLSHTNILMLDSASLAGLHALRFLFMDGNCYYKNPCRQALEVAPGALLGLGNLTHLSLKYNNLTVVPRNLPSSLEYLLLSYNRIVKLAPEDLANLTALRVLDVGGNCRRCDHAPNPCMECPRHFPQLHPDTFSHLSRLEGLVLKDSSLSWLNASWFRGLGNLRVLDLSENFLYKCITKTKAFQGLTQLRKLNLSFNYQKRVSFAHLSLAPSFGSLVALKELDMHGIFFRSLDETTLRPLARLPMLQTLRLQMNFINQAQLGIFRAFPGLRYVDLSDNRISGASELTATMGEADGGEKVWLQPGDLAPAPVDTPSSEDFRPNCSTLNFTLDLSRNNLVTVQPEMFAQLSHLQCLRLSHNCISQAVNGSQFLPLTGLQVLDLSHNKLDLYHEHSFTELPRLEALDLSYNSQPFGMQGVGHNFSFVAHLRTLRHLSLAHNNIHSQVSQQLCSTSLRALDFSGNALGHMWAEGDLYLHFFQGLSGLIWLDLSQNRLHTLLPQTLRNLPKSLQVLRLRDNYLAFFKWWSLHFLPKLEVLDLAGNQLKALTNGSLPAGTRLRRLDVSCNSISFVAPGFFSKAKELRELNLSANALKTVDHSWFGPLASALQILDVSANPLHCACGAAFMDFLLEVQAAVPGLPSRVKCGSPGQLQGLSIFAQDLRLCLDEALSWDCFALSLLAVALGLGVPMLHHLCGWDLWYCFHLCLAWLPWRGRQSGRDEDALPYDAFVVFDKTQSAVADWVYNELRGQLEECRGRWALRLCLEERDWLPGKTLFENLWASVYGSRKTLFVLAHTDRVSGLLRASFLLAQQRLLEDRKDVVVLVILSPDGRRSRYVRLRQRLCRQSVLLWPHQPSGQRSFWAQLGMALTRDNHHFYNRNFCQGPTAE
How it was run: (§1)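 HEK-Blue cells with an NF-κB/AP-1-driven SEAP reporter were pre-treated 30 min at room temperature with compound (0.05 nM–50 μM), then stimulated with gardiquimod 7.5 μM (TLR7), R848 15.9 μM (TLR8) or ODN2006 5 nM (TLR9). After 22 h at 37 °C, SEAP was read; % inhibition was referenced to agonist+DMSO and known-inhibitor wells.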

[2] = molecular target: T2, human TLR7 (Homo sapiens, UniProt Q9NYK1); test: TLR7 inhibition reporter assay (HEK-Blue cells, SEAP reporter); details: HEK-Blue cells overexpressing human TLR7; stimulated with gardiquimod 7.5 μM; 22 hour incubation; SEAP readout
T2 sequence (Q9NYK1 27-1049): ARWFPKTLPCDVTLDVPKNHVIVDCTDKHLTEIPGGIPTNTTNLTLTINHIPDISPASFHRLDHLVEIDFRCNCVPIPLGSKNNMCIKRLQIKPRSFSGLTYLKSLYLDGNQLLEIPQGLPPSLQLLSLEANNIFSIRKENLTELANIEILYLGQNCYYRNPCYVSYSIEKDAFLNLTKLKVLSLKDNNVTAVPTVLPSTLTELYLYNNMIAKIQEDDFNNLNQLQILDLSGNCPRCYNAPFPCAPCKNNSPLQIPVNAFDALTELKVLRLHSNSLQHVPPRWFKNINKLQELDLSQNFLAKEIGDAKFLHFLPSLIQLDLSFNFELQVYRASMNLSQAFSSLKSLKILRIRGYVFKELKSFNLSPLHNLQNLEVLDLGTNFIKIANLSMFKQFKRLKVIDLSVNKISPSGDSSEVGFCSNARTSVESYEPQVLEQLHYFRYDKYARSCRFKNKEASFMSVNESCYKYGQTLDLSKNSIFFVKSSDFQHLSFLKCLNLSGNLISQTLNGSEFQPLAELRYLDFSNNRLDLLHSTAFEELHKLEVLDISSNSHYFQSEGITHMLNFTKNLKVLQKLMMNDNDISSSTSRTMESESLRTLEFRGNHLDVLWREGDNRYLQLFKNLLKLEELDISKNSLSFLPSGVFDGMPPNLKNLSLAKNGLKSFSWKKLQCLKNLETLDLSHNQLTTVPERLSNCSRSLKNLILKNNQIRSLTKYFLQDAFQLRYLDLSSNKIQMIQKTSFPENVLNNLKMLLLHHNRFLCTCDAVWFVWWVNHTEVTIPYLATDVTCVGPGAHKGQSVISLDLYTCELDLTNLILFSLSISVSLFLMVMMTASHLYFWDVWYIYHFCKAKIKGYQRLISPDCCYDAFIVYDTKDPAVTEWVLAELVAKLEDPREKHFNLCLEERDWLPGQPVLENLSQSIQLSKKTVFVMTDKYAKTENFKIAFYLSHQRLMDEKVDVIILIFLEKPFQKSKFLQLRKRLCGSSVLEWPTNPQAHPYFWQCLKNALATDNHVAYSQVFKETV
How it was run: as §1

[3] = molecular target: T3, human TLR8 (Homo sapiens, UniProt Q9NR97); test: TLR8 inhibition reporter assay (HEK-Blue cells, SEAP reporter); details: HEK-Blue cells overexpressing human TLR8; stimulated with R848 15.9 μM; 22 hour incubation; SEAP readout
T3 sequence (Q9NR97 27-1041): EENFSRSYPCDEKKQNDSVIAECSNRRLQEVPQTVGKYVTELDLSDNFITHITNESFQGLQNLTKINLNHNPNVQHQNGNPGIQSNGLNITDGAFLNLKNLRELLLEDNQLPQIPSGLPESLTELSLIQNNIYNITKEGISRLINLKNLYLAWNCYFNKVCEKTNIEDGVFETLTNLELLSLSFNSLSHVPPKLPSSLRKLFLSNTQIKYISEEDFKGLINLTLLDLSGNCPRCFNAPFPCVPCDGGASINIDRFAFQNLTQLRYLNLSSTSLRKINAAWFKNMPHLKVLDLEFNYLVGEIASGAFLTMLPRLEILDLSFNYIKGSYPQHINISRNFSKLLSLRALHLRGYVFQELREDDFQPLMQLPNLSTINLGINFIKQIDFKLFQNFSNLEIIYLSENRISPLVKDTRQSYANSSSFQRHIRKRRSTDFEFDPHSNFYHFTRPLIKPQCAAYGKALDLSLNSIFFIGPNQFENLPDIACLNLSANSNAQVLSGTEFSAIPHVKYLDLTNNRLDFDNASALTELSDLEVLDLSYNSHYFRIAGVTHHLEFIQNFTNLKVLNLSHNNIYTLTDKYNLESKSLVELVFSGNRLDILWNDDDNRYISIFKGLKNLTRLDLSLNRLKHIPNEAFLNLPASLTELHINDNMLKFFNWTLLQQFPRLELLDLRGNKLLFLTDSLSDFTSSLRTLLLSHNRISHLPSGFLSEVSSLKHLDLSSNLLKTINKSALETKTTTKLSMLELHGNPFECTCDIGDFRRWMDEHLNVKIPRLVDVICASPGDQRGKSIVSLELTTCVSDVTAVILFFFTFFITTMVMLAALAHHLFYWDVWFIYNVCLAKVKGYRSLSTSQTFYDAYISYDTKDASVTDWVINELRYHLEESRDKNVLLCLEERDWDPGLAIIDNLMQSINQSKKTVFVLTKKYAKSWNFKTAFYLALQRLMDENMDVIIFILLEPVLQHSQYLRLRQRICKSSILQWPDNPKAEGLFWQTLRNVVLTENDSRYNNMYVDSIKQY
How it was run: as §1

SMILES | IC50 [1] [µM] | IC50 [2] [µM] | IC50 [3] [µM]
COc1ccc(-c2nc3cc(C4CCN(C5CCN(C(C)C)CC5)CC4)ccn3n2)cc1OC [Example 60, 2-(3,4-dimethoxyphenyl)-7-(1′-isopropyl-[1,4′-bipiperidin]-4-yl)-[1,2,4]triazolo[1,5-a]pyridine] | 1.1 | 29 | > 50
COc1ccc(-c2nc3cc(C4CCN(C5CCN(CC(C)C)CC5)CC4)ccn3n2)cc1OC [Example 61, 2-(3,4-dimethoxyphenyl)-7-(1′-isobutyl-[1,4′-bipiperidin]-4-yl)-[1,2,4]triazolo[1,5-a]pyridine] | 1.24 | 11 | > 50
COc1ccc(-c2cn3cc(-c4ccc(N5CCN(C6COC6)CC5)cc4)cc(C)c3n2)cc1OC [Example 64, 2-(3,4-dimethoxyphenyl)-8-methyl-6-(4-(4-(oxetan-3-yl)piperazin-1-yl)phenyl) imidazo[1,2-a]pyridine] | 2.38 | > 25 | > 25
Cc1cc(-c2ccc(N3CCN(C(C)C)CC3)cc2)cn2cc(-c3ccc(S(C)(=O)=O)cc3)nc12 [Example 65, 6-(4-(4-isopropylpiperazin-1-yl)phenyl)-8-methyl-2-(4-(methylsulfonyl)phenyl) imidazo[1,2-a]pyridine] | 0.67 | 4.8 | > 50
CC(C)N1CCC(N2CCC(c3cn4cc(-c5ccc(S(C)(=O)=O)cc5)nc4cc3F)CC2)CC1 [Example 70, 7-fluoro-6-(1′-isopropyl-[1,4′-bipiperidin]-4-yl)-2-(4-(methylsulfonyl)phenyl) imidazo[1,2-a]pyridine] | 0.303 | 22.9 | > 50
CC(C)N1CCC(N2CCC(c3ccc4nc(-c5ccc(S(C)(=O)=O)cc5)cn4c3F)CC2)CC1 [Example 73, 5-fluoro-6-(1′-isopropyl-[1,4′-bipiperidin]-4-yl)-2-(4-(methylsulfonyl)phenyl) imidazo[1,2-a]pyridine] | 0.106 | > 50 | 23
COc1ccc(-c2cn3cc(-c4ccc(N5CCN(CC(C)C)CC5)cc4)cc(C)c3n2)cc1OC [Example 94, 2-(3,4-dimethoxyphenyl)-6-(4-(4-isobutylpiperazin-1-yl)phenyl)-8-methylimidazo[1,2-a]pyridine] | 0.22 | > 50 | > 50
COc1ccc(-c2cn3cc(-c4ccc(N5CCN(CC6CC6)CC5)cc4)cc(C)c3n2)cc1OC [Example 95, 6-(4-(4-(cyclopropylmethyl)piperazin-1-yl)phenyl)-2-(3,4-dimethoxyphenyl)-8-methylimidazo[1,2-a]pyridine] | 0.531 | 1 | > 50
COc1ccc(-c2cn3cc(-c4ccc(N5CCN(C(C)C)CC5)cc4)cc(C)c3n2)cc1OC [Example 96, 2-(3,4-dimethoxyphenyl)-6-(4-(4-isopropylpiperazin-1-yl)phenyl)-8-methylimidazo[1,2-a]pyridine] | 0.232 | 2.1 | 15
COc1ccc(-c2cn3cc(-c4ccc(N5CCN(C6CCOCC6)CC5)cc4)cc(C)c3n2)cc1OC [Example 97, 2-(3,4-dimethoxyphenyl)-8-methyl-6-(4-(4-(tetrahydro-2H-pyran-4-yl)piperazin-1-yl)phenyl) imidazo[1,2-a]pyridine] | 2.1 | > 50 | > 25

These reach a lower IC50 [1]. Values come first.

IC50 [1] [µM] | IC50 [2] [µM] | IC50 [3] [µM] | SMILES
0.022 | 2.3 | > 50 | COc1ccc(-c2cn3cc(C4CCN(C5CC6(C5)CN(C5CC5)C6)CC4)cc(C)c3n2)cc1OC [Example 17, 6-(1-(2-cyclopropyl-2-azaspiro[3.3]heptan-6-yl)piperidin-4-yl)-2-(3,4-dimethoxyphenyl)-8-methylimidazo[1,2-a]pyridine]
0.062 | 14.3 | > 50 | Cc1cc(C2CCN(C3CCN(C(C)C)CC3)CC2)cc2nc(-c3ccc(S(C)(=O)=O)cc3)cn12 [Example 66, 7-(1′-isopropyl-[1,4′-bipiperidin]-4-yl)-5-methyl-2-(4-(methylsulfonyl)phenyl) imidazo[1,2-a]pyridine]
0.043 | 19.2 | > 50 | CC(C)N1CCC(N2CCC(c3cc(F)c4nc(-c5ccc(S(C)(=O)=O)cc5)cn4c3)CC2)CC1 [Example 67, 8-fluoro-6-(1′-isopropyl-[1,4′-bipiperidin]-4-yl)-2-(4-(methylsulfonyl)phenyl) imidazo[1,2-a]pyridine]
0.05 | 3.5 | > 25 | Cc1cc(C2CCN(C3CCN(CC4CC4)CC3)CC2)cn2cc(-c3ccc(S(C)(=O)=O)cc3)nc12 [Example 92, 6-(1′-(cyclopropylmethyl)-[1,4′-bipiperidin]-4-yl)-8-methyl-2-(4-(methylsulfonyl)phenyl)imidazo[1,2-a]pyridine]
